Data on 19 molecules can be found in US12583866B2, “Pyrido[2,3-b][1,4]oxazines or tetrahydropyrido[2,3-b][1,4]oxazepines as IAP antagonists” (BEIGENE, LTD., priority 2020, dated 2026).

In experiment [1] the target is T1, recombinant human XIAP-BIR3 protein (Homo sapiens, UniProt P98170).
T1 construct: recombinant human XIAP-BIR3 protein; purchased Reaction biology APT-11-374
Put plainly: Recombinant human XIAP-BIR3 biochemical assay (HTRF, peptide displacement). The note with it: 3.7 nM XIAP-BIR3, 7.6 nM AbuRPF-K(5-Fam)-NH2 peptide, read-out: Protein binding IC50 (nM) XIAP. The essentials: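 3.7 nM His-tagged XIAP-BIR3 was preincubated 1 h RT with compound (top 10 µM, 4-fold, 10 points) in 20 mM HEPES pH 7.5, 50 mM NaCl, 0.005% Tween-20, 1 mM DTT. 7.6 nM AbuRPF-K(5-Fam)-NH2 peptide was then added, followed by anti-6His Tb cryptate, 1 h each. HTRF 520/490 nm ratio; four-parameter logistic IC50.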
(In TR-FRET formats the signal depends on donor and acceptor labels being close together.)

Experiment [2] concerns the target T2, recombinant human cIAP2-BIR3 protein (Homo sapiens, UniProt Q13489).
T2 construct: recombinant human cIAP2-BIR3 protein; purchased Reaction biology APT-11-372
Put plainly: Recombinant human c-IAP2-BIR3 biochemical assay (HTRF, peptide displacement). The note with it: 3.7 nM cIAP2-BIR3, 3.7 nM AbuRPF-K(5-Fam)-NH2 peptide, read-out: Protein binding IC50 (nM) c-IAP2. The essentials: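 3.7 nM protein pre-incubated 1 h at room temperature with compounds (top 10 uM, 4-fold, 10 points) in 20 mM HEPES pH 7.5, 50 mM NaCl, 0.005% Tween-20, 1 mM DTT. Then 3.7 nM AbuRPF-K(5-Fam)-NH2 for 1 h, then anti-6His Tb cryptate 1 h. IC50 from 520/490 nm HTRF ratio, four-parameter logistic fit.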

Experiment [3] addresses T3, recombinant human cIAP1-BIR3 protein (Homo sapiens, UniProt Q13490).
T3 construct: recombinant human cIAP1-BIR3 protein; purchased Reaction biology APT-11-370
Briefly: Recombinant human c-IAP1-BIR3 biochemical assay (HTRF, peptide displacement). The note with it: 1.2 nM cIAP1-BIR3, 3 nM AbuRPF-K(5-Fam)-NH2 peptide, read-out: Protein binding IC50 (nM) c-IAP1. The essentials:
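1.2 nM cIAP1-BIR3 preincubated 1 h at room temperature with compound (10 points, 4-fold, top 10 uM) in 20 mM HEPES pH 7.5, 50 mM NaCl, 1 mM DTT; 3 nM AbuRPF-K(5-Fam)-NH2 then added for 1 h, then anti-6His Tb cryptate for 1 h. 520/490 nm ratio; IC50 by four-parameter logistic fit.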

T1 sequence (P98170 241-356 limits assumed): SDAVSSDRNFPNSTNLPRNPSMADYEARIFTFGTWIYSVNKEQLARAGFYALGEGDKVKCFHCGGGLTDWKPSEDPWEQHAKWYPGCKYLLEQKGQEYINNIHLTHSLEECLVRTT
T3 sequence (Q13490 253-363 limits assumed): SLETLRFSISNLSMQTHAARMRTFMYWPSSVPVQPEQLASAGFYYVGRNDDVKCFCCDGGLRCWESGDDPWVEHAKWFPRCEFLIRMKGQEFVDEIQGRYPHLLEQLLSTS
T2 sequence (Q13489 238-349 limits assumed): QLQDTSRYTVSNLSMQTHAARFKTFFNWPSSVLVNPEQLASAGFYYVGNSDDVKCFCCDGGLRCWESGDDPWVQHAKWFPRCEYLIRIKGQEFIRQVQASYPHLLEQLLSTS

One may read the IC50 as the concentration that gives 50% inhibition. With `C[C@@H]1CN(CC(=O)N2c3cc(Cc4ccc(F)cc4)c(CO)nc3OC[C@@H]2C)[C@@H](CN2CCOC[C@H]2CO)CN1` [Compound 54, 1-((S)-7-(4-fluorobenzyl)-6-(hydroxymethyl)-2-methyl-2,3-dihydro-1H-pyrido[2,3-b][1,4]oxazin-1-yl)-2-((2R,5R)-2-(((R)-3-(hydroxymethyl)morpholino)methyl)-5-methylpiperazin-1-yl)ethan-1-one], the figures for the IC50 in experiment [1], in experiment [2] and in experiment [3] were 25 nM, 2.8 nM and 1.7 nM, respectively.
The corresponding values for `CC(C)OC[C@H]1COc2ncc(Cc3ccc(F)cc3)cc2N1C(=O)CN1C[C@@H](C)NC[C@@H]1CN1[C@H](C)COC[C@H]1C` [Compound 39, 2-((2R,5R)-2-(((3R,5R)-3,5-dimethylmorpholino)methyl)-5-methylpiperazin-1-yl)-1-((S)-7-(4-fluorobenzyl)-2-(isopropoxymethyl)-2,3-dihydro-1H-pyrido[2,3-b][1,4]oxazin-1-yl)ethan-1-one] are 28 nM, 0.27 nM and 0.15 nM.
The corresponding values for `C[C@@H]1CN(CC(=O)N2c3cc(Cc4ccc(F)cc4)cnc3OC[C@@H]2c2ccccc2)[C@@H](CN2[C@H](C)COC[C@H]2C)CN1` [Compound 44] are 20 nM, 0.93 nM and 0.36 nM.
As to `C[C@@H]1CN(CC(=O)N2c3cc(Cc4ccc(F)cc4)cnc3OC[C@@H]2C2CC2)[C@@H](CN2[C@H](C)COC[C@H]2C)CN1` [Compound 27, 1-((S)-2-cyclopropyl-7-(4-fluorobenzyl)-2,3-dihydro-1H-pyrido[2,3-b][1,4]oxazin-1-yl)-2-((2R,5R)-2-(((3R,5R)-3,5-dimethylmorpholino)methyl)-5-methylpiperazin-1-yl)ethan-1-one], the results for the IC50 in experiment [1], in experiment [2] and in experiment [3] were 14 nM, 0.5 nM and 0.2 nM, respectively.
Consider `C[C@@H]1CN(CC(=O)N2c3cc(Cc4ccc(F)cc4)c(C(=O)Nc4ccc(F)cc4)nc3OC[C@@H]2C)[C@@H](CN2[C@H](C)COC[C@H]2C)CN1` [Example 71, (S)-1-(2-((2R,5R)-2-(((3R,5R)-3,5-dimethylmorpholino)methyl)-5-methylpiperazin-1-yl)acetyl)-7-(4-fluorobenzyl)-N-(4-fluorophenyl)-2-methyl-2,3-dihydro-1H-pyrido[2,3-b][1,4]oxazine-6-carboxamide], for which the IC50 in experiment [1] was 7.9 nM; in experiment [2], 0.57 nM; in experiment [3], 0.26 nM.
For `CC(C)C(=O)Nc1nc2c(cc1Cc1ccc(F)cc1)N(C(=O)CN1C[C@@H](C)NC[C@@H]1CN1[C@H](C)COC[C@H]1C)[C@@H](C)CO2` [Compound 118, N—((S)-1-(2-((2R,5R)-2-(((3R,5R)-3,5-dimethylmorpholino)methyl)-5-methylpiperazin-1-yl)acetyl)-7-(4-fluorobenzyl)-2-methyl-2,3-dihydro-1H-pyrido[2,3-b][1,4]oxazin-6-yl)isobutyramide], in that order: 4.8 nM, 0.19 nM and 0.16 nM.
For the molecule `C[C@@H]1CN(CC(=O)N2c3cc(Cc4ccc(F)cc4)c(N)nc3OC[C@@H]2C)[C@@H](CN2[C@H](C)COC[C@H]2C)CN1` [Compound 115, 1-((S)-6-amino-7-(4-fluorobenzyl)-2-methyl-2,3-dihydro-1H-pyrido[2,3-b][1,4]oxazin-1-yl)-2-((2R,5R)-2-(((3R,5R)-3,5-dimethylmorpholino)methyl)-5-methylpiperazin-1-yl)ethan-1-one], the IC50 in experiment [1] is 6.9 nM; in experiment [2], 0.28 nM; in experiment [3], 0.17 nM.
For `C[C@@H]1CN(CC(=O)N2c3cc(Cc4ccc(F)cc4)c(O)nc3OC[C@@H]2C)[C@@H](CN2[C@H](C)COC[C@H]2C)CN1` [Example 81], in that order: 2.9 nM, 0.42 nM and 0.18 nM.
Regarding `C[C@@H]1CN(CC(=O)N2c3cc(Cc4ccc(F)cc4)c(C(N)=O)nc3OC[C@@H]2C)[C@@H](CN2[C@H](C)COC[C@H]2C)CN1` [Compound 32, (S)-1-(2-((2R,5R)-2-(((3R,5R)-3,5-dimethylmorpholino)methyl)-5-methylpiperazin-1-yl)acetyl)-7-(4-fluorobenzyl)-2-methyl-2,3-dihydro-1H-pyrido[2,3-b][1,4]oxazine-6-carboxamide], the 50% inhibitory concentration (IC50) was determined as 5.8 nM in experiment [1], 0.36 nM in experiment [2] and 0.25 nM in experiment [3].
Consider `C[C@@H]1CN(CC(=O)N2c3cc(Cc4ccc(F)cc4)c(C(=O)NC4CC4)nc3OC[C@@H]2C)[C@@H](CN2[C@H](C)COC[C@H]2C)CN1` [Example 63], for which the concentration for half-maximal inhibition (IC50) in experiment [1] amounted to 3.2 nM; in experiment [2], 0.23 nM; in experiment [3], 0.17 nM.
With `C[C@@H]1CN(CC(=O)N2c3cc(Cc4ccc(F)cc4)c(CO)nc3OC[C@@H]2C)[C@@H](CN2[C@H](C)COC[C@H]2C)CN1` [Compound 24], the IC50 in experiment [1] stood at 4.49 nM; in experiment [2], 0.24 nM; in experiment [3], 0.15 nM.
For `CCS(=O)(=O)Nc1nc2c(cc1Cc1ccc(F)cc1)N(C(=O)CN1C[C@@H](C)NC[C@@H]1CN1[C@H](C)COC[C@H]1C)[C@@H](C)CO2` [Compound 122], in that order: 2.9 nM, 0.29 nM and 0.19 nM.
With `C[C@@H]1CN(CC(=O)N2c3cc(Cc4ccc(F)cc4)c(OCCN4CCOCC4)nc3OC[C@@H]2C)[C@@H](CN2[C@H](C)COC[C@H]2C)CN1` [Compound 90], the IC50 in experiment [1] is 3.8 nM; in experiment [2] it was 0.34 nM; in experiment [3], 0.22 nM.
For `C[C@@H]1CN(CC(=O)N2c3cc(Cc4ccc(F)cc4)c(C(=O)NC[C@@H]4CCOC4)nc3OC[C@@H]2C)[C@@H](CN2[C@H](C)COC[C@H]2C)CN1` [Compound 95, (S)-1-(2-((2R,5R)-2-(((3R,5R)-3,5-dimethylmorpholino)methyl)-5-methylpiperazin-1-yl)acetyl)-7-(4-fluorobenzyl)-2-methyl-N—(((S)-tetrahydrofuran-3-yl)methyl)-2,3-dihydro-1H-pyrido[2,3-b][1,4]oxazine-6-carboxamide], in that order: 2.3 nM, 0.25 nM and 0.19 nM.
For `C[C@@H]1CN(CC(=O)N2c3cc(Cc4ccc(F)cc4)cnc3OC[C@@H]2C2CCCCC2)[C@@H](CN2CCOC[C@H]2C)CN1` [Compound 42, 1-((S)-2-cyclohexyl-7-(4-fluorobenzyl)-2,3-dihydro-1H-pyrido[2,3-b][1,4]oxazin-1-yl)-2-((2R,5R)-5-methyl-2-(((R)-3-methylmorpholino)methyl)piperazin-1-yl)ethan-1-one], in that order: 25 nM, 0.52 nM and 0.34 nM.
For `C[C@@H]1CN(CC(=O)N2c3cc(Cc4ccc(F)cc4)c(C(=O)N4CC[C@H](F)C4)nc3OC[C@@H]2C)[C@@H](CN2[C@H](C)COC[C@H]2C)CN1` [Compound 100, 2-((2R,5R)-2-(((3R,5R)-3,5-dimethylmorpholino)methyl)-5-methylpiperazin-1-yl)-1-((S)-7-(4-fluorobenzyl)-6-((S)-3-fluoropyrrolidine-1-carbonyl)-2-methyl-2,3-dihydro-1H-pyrido[2,3-b][1,4]oxazin-1-yl)ethan-1-one], in that order: 4.2 nM, 0.44 nM and 0.17 nM.
Take `C[C@@H]1CN(CC(=O)N2c3cc(Cc4ccc(F)cc4)c(C(=O)N4CCCCC4)nc3OC[C@@H]2C)[C@@H](CN2[C@H](C)COC[C@H]2C)CN1` [Compound 102, 2-((2R,5R)-2-(((3R,5R)-3,5-dimethylmorpholino)methyl)-5-methylpiperazin-1-yl)-1-((S)-7-(4-fluorobenzyl)-2-methyl-6-(piperidine-1-carbonyl)-2,3-dihydro-1H-pyrido[2,3-b][1,4]oxazin-1-yl)ethan-1-one]: the results for the IC50 in experiment [1], in experiment [2] and in experiment [3] were 5.7 nM, 0.49 nM and 0.24 nM, respectively.
Regarding `CC(C)C[C@H]1COc2ncc(Cc3ccc(F)cc3)cc2N1C(=O)CN1C[C@@H](C)NC[C@@H]1CN1CCOC[C@H]1C` [Compound 33], the IC50 came to 47 nM in experiment [1], 1.8 nM in experiment [2] and 0.74 nM in experiment [3].
In the case of `C[C@@H]1CN(CC(=O)N2c3cc(Cc4ccc(F)cc4)c(C(=O)NC[C@H]4CCCO4)nc3OC[C@@H]2C)[C@@H](CN2[C@H](C)COC[C@H]2C)CN1` [Compound 94, (S)-1-(2-((2R,5R)-2-(((3R,5R)-3,5-dimethylmorpholino)methyl)-5-methylpiperazin-1-yl)acetyl)-7-(4-fluorobenzyl)-2-methyl-N—(((R)-tetrahydrofuran-2-yl)methyl)-2,3-dihydro-1H-pyrido[2,3-b][1,4]oxazine-6-carboxamide], the results for the concentration for half-maximal inhibition (IC50) in experiment [1], in experiment [2] and in experiment [3] were 3.3 nM, 0.28 nM and 0.16 nM, respectively.
